{
  "source": "PubChem BioAssay AID2060893",
  "about": "(Molecular Pharmacology Branch, DTP, NCI, 2025)",
  "system": "K86415-001-R-J1-PDC complex spheroids, viability",
  "assay": "Anticancer human tumor K86415-001-R-J1-PDC patient-derived lung adenocarcinoma cell line growth inhibition [RAS]",
  "conditions": "for pIC50: curve of first compound; for viability, T/C: stronger effect = lower value",
  "how_it_was_run": "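Multi-cell-type spheroids: tumor cells plus HUVEC endothelial cells and mesenchymal stem cells. RAS-pathway inhibitors were combined with targeted agents, each dosed in half-log steps down from clinical Cmax, or from 10 microM when Cmax was unknown.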",
  "key": {"[1]": {"conditions": "second compound 0.0316 µM, first compound 0.0316 µM"}, "[2]": {"conditions": "second compound 0.0316 µM, first compound 0.1 µM"}, "[3]": {"conditions": "second compound 0.0316 µM, first compound 0.316 µM"}, "[4]": {"conditions": "second compound 0.0316 µM, first compound 1 µM"}, "[5]": {"conditions": "second compound 0.1 µM, first compound 0.0316 µM"}, "[6]": {"conditions": "second compound 0.1 µM, first compound 0.1 µM"}, "[7]": {"conditions": "second compound 0.1 µM, first compound 0.316 µM"}, "[8]": {"conditions": "second compound 0.1 µM, first compound 1 µM"}, "[9]": {"conditions": "second compound 0.316 µM, first compound 0.0316 µM"}, "[10]": {"conditions": "second compound 0.316 µM, first compound 0.1 µM"}, "[11]": {"conditions": "second compound 0.316 µM, first compound 0.316 µM"}, "[12]": {"conditions": "second compound 0.316 µM, first compound 1 µM"}, "[13]": {"conditions": "second compound 1 µM, first compound 0.0316 µM"}, "[14]": {"conditions": "second compound 1 µM, first compound 0.1 µM"}, "[15]": {"conditions": "second compound 1 µM, first compound 0.316 µM"}, "[16]": {"conditions": "second compound 1 µM, first compound 1 µM"}},
  "note": "pIC50: −log10 of the molar value.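 Also: spheroids exposed to agents for seven days before readout.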",
  "data": [
    {"smiles": "C[C@@H](NC(=O)c1ncnc(N)c1Cl)c1ncc(C(=O)Nc2cc(C(F)(F)F)c(Cl)cn2)s1", "note": "+ C=CC(=O)N1CCN(c2nc(OCC3CCCN3C)nc3c(F)c(-c4nc(N)cc(C)c4C(F)(F)F)c(Cl)cc23)C(C)C1", "values": [
      {"measurement": "pIC50", "setting": "second compound 0.00316 µM", "value": "> 7.50"},
      {"measurement": "pIC50", "setting": "second compound 0.01 µM", "value": "> 7.50"},
      {"measurement": "pIC50", "setting": "second compound 0.0316 µM", "value": "> 7.50"},
      {"measurement": "pIC50", "setting": "second compound 0.1 µM", "value": "> 7.50"},
      {"measurement": "pIC50", "setting": "second compound 0.316 µM", "value": "> 7.50"},
      {"measurement": "pIC50", "setting": "second compound 1 µM", "value": "> 7.50"},
      {"measurement": "viability, T/C", "setting": "second compound 0.00316 µM, first compound 0.0316 µM", "value": 24.3, "unit": "%"},
      {"measurement": "viability, T/C", "setting": "second compound 0.00316 µM, first compound 0.1 µM", "value": 23.5, "unit": "%"},
      {"measurement": "viability, T/C", "setting": "second compound 0.00316 µM, first compound 0.316 µM", "value": 23.3, "unit": "%"},
      {"measurement": "viability, T/C", "setting": "second compound 0.00316 µM, first compound 1 µM", "value": 25.3, "unit": "%"},
      {"measurement": "viability, T/C", "setting": "second compound 0.00316 µM, first compound 3.16 µM", "value": 19, "unit": "%"},
      {"measurement": "viability, T/C", "setting": "second compound 0.00316 µM, first compound 10 µM", "value": 17.7, "unit": "%"},
      {"measurement": "viability, T/C", "setting": "second compound 0.01 µM, first compound 0.0316 µM", "value": 14.8, "unit": "%"},
      {"measurement": "viability, T/C", "setting": "second compound 0.01 µM, first compound 0.1 µM", "value": 14.6, "unit": "%"},
      {"measurement": "viability, T/C", "setting": "second compound 0.01 µM, first compound 0.316 µM", "value": 14.2, "unit": "%"},
      {"measurement": "viability, T/C", "setting": "second compound 0.01 µM, first compound 1 µM", "value": 14.6, "unit": "%"},
      {"measurement": "viability, T/C", "setting": "second compound 0.01 µM, first compound 3.16 µM", "value": 20, "unit": "%"},
      {"measurement": "viability, T/C", "setting": "second compound 0.01 µM, first compound 10 µM", "value": 14, "unit": "%"},
      {"measurement": "viability, T/C", "setting": "[1]", "value": 12, "unit": "%"},
      {"measurement": "viability, T/C", "setting": "[2]", "value": 11.7, "unit": "%"},
      {"measurement": "viability, T/C", "setting": "[3]", "value": 10.3, "unit": "%"},
      {"measurement": "viability, T/C", "setting": "[4]", "value": 10.8, "unit": "%"},
      {"measurement": "viability, T/C", "setting": "second compound 0.0316 µM, first compound 3.16 µM", "value": 11.4, "unit": "%"},
      {"measurement": "viability, T/C", "setting": "second compound 0.0316 µM, first compound 10 µM", "value": 10.2, "unit": "%"},
      {"measurement": "viability, T/C", "setting": "[5]", "value": 13.1, "unit": "%"},
      {"measurement": "viability, T/C", "setting": "[6]", "value": 10.6, "unit": "%"},
      {"measurement": "viability, T/C", "setting": "[7]", "value": 14.1, "unit": "%"},
      {"measurement": "viability, T/C", "setting": "[8]", "value": 10.8, "unit": "%"},
      {"measurement": "viability, T/C", "setting": "second compound 0.1 µM, first compound 3.16 µM", "value": 9.5, "unit": "%"},
      {"measurement": "viability, T/C", "setting": "second compound 0.1 µM, first compound 10 µM", "value": 9.83, "unit": "%"},
      {"measurement": "viability, T/C", "setting": "[9]", "value": 10.6, "unit": "%"},
      {"measurement": "viability, T/C", "setting": "[10]", "value": 11.1, "unit": "%"},
      {"measurement": "viability, T/C", "setting": "[11]", "value": 10.8, "unit": "%"},
      {"measurement": "viability, T/C", "setting": "[12]", "value": 10.8, "unit": "%"},
      {"measurement": "viability, T/C", "setting": "second compound 0.316 µM, first compound 3.16 µM", "value": 10.5, "unit": "%"},
      {"measurement": "viability, T/C", "setting": "second compound 0.316 µM, first compound 10 µM", "value": 10.7, "unit": "%"},
      {"measurement": "viability, T/C", "setting": "[13]", "value": 10.6, "unit": "%"},
      {"measurement": "viability, T/C", "setting": "[14]", "value": 13, "unit": "%"},
      {"measurement": "viability, T/C", "setting": "[15]", "value": 13.4, "unit": "%"},
      {"measurement": "viability, T/C", "setting": "[16]", "value": 11.6, "unit": "%"},
      {"measurement": "viability, T/C", "setting": "second compound 1 µM, first compound 3.16 µM", "value": 10.8, "unit": "%"},
      {"measurement": "viability, T/C", "setting": "second compound 1 µM, first compound 10 µM", "value": 11.1, "unit": "%"}
    ]},
    {"smiles": "CCN1CCN(Cc2ccc(Nc3ncc(F)c(-c4cc(F)c5nc(C)n(C(C)C)c5c4)n3)nc2)CC1", "note": "+ C#Cc1c(F)ccc2cc(O)cc(-c3ncc4c(N5CC6CCC(C5)N6)nc(OCC56CCCN5CC(F)C6)nc4c3F)c12", "values": [
      {"measurement": "pIC50", "setting": "second compound 0.0316 µM", "value": "< 6.00"},
      {"measurement": "pIC50", "setting": "second compound 0.1 µM", "value": "< 6.00"},
      {"measurement": "pIC50", "setting": "second compound 0.316 µM", "value": "< 6.00"},
      {"measurement": "pIC50", "setting": "second compound 1 µM", "value": 7.57},
      {"measurement": "pIC50", "setting": "second compound 3.16 µM", "value": "> 8.50"},
      {"measurement": "pIC50", "setting": "second compound 10 µM", "value": "> 8.50"},
      {"measurement": "viability, T/C", "setting": "second compound 0.0316 µM, first compound 0.00316 µM", "value": 93.1, "unit": "%"},
      {"measurement": "viability, T/C", "setting": "second compound 0.0316 µM, first compound 0.01 µM", "value": 89, "unit": "%"},
      {"measurement": "viability, T/C", "setting": "[1]", "value": 77.4, "unit": "%"},
      {"measurement": "viability, T/C", "setting": "[2]", "value": 67.5, "unit": "%"},
      {"measurement": "viability, T/C", "setting": "[3]", "value": 66.3, "unit": "%"},
      {"measurement": "viability, T/C", "setting": "[4]", "value": 67.4, "unit": "%"},
      {"measurement": "viability, T/C", "setting": "second compound 0.1 µM, first compound 0.00316 µM", "value": 90.9, "unit": "%"},
      {"measurement": "viability, T/C", "setting": "second compound 0.1 µM, first compound 0.01 µM", "value": 80.5, "unit": "%"},
      {"measurement": "viability, T/C", "setting": "[5]", "value": 72.3, "unit": "%"},
      {"measurement": "viability, T/C", "setting": "[6]", "value": 61.7, "unit": "%"},
      {"measurement": "viability, T/C", "setting": "[7]", "value": 57.4, "unit": "%"},
      {"measurement": "viability, T/C", "setting": "[8]", "value": 70.7, "unit": "%"},
      {"measurement": "viability, T/C", "setting": "second compound 0.316 µM, first compound 0.00316 µM", "value": 92, "unit": "%"},
      {"measurement": "viability, T/C", "setting": "second compound 0.316 µM, first compound 0.01 µM", "value": 79.3, "unit": "%"},
      {"measurement": "viability, T/C", "setting": "[9]", "value": 67.1, "unit": "%"},
      {"measurement": "viability, T/C", "setting": "[10]", "value": 55.8, "unit": "%"},
      {"measurement": "viability, T/C", "setting": "[11]", "value": 50.3, "unit": "%"},
      {"measurement": "viability, T/C", "setting": "[12]", "value": 61, "unit": "%"},
      {"measurement": "viability, T/C", "setting": "second compound 1 µM, first compound 0.00316 µM", "value": 62, "unit": "%"},
      {"measurement": "viability, T/C", "setting": "second compound 1 µM, first compound 0.01 µM", "value": 54.7, "unit": "%"},
      {"measurement": "viability, T/C", "setting": "[13]", "value": 49, "unit": "%"},
      {"measurement": "viability, T/C", "setting": "[14]", "value": 44.5, "unit": "%"},
      {"measurement": "viability, T/C", "setting": "[15]", "value": 45.2, "unit": "%"},
      {"measurement": "viability, T/C", "setting": "[16]", "value": 53.5, "unit": "%"},
      {"measurement": "viability, T/C", "setting": "second compound 3.16 µM, first compound 0.00316 µM", "value": 39.5, "unit": "%"},
      {"measurement": "viability, T/C", "setting": "second compound 3.16 µM, first compound 0.01 µM", "value": 34.9, "unit": "%"},
      {"measurement": "viability, T/C", "setting": "second compound 3.16 µM, first compound 0.0316 µM", "value": 28.4, "unit": "%"},
      {"measurement": "viability, T/C", "setting": "second compound 3.16 µM, first compound 0.1 µM", "value": 26.1, "unit": "%"},
      {"measurement": "viability, T/C", "setting": "second compound 3.16 µM, first compound 0.316 µM", "value": 30.9, "unit": "%"},
      {"measurement": "viability, T/C", "setting": "second compound 3.16 µM, first compound 1 µM", "value": 38.9, "unit": "%"},
      {"measurement": "viability, T/C", "setting": "second compound 10 µM, first compound 0.00316 µM", "value": 14.3, "unit": "%"},
      {"measurement": "viability, T/C", "setting": "second compound 10 µM, first compound 0.01 µM", "value": 15.6, "unit": "%"},
      {"measurement": "viability, T/C", "setting": "second compound 10 µM, first compound 0.0316 µM", "value": 14.1, "unit": "%"},
      {"measurement": "viability, T/C", "setting": "second compound 10 µM, first compound 0.1 µM", "value": 19, "unit": "%"},
      {"measurement": "viability, T/C", "setting": "second compound 10 µM, first compound 0.316 µM", "value": 22.1, "unit": "%"},
      {"measurement": "viability, T/C", "setting": "second compound 10 µM, first compound 1 µM", "value": 22.2, "unit": "%"}
    ]}
  ]
}
